Data set [1] is described as follows: Drug uptake in awake rhesus monkey occipital lobe after 115 mins postinjection. It counts as ADME, organism-based, Macaca mulatta. Particulars: in vivo.
Data set [2] can be described thus: Drug uptake in anesthetized cynomolgus monkey brain occipital lobe after 187.5 mins postinjection. Conditions: in vivo, 3.125 h. The format is ADME, organism-based, Macaca fascicularis.
A short description of data set [3]: Drug uptake in anesthetized cynomolgus monkey brain frontal lobe after 192.5 mins postinjection. It counts as ADME, organism-based, Macaca fascicularis. Particulars: in vivo.
Data set [4] is described as follows: Drug uptake in anesthetized cynomolgus monkey brain occipital lobe after 207.5 mins postinjection. It counts as ADME, organism-based, Macaca fascicularis. Particulars: in vivo.
Data set [5] in a line: Drug uptake in awake rhesus monkey brain pons after 1.25 mins postinjection. It counts as ADME, organism-based, Macaca mulatta. Conditions: in vivo, 75 s.
The nature of data set [6]: Drug uptake in awake rhesus monkey brain frontal lobe after 115 mins postinjection. It counts as ADME, organism-based, Macaca mulatta. Conditions: in vivo.

The record followed here is ChEMBL document CHEMBL1151757, “Synthesis, radiosynthesis, and biological evaluation of fluorine-18-labeled 2beta-carbo(fluoroalkoxy)-3beta-(3'-((Z)-2-haloethenyl)phenyl)nortropanes: candidate radioligands for in vivo imaging of the serotonin transporter with positron emission tomography” (J Med Chem, 2008).

With `O=C(OCC[18F])C1C2CCC(CC1c1ccc(/C=C\I)cc1)N2` (stereo unspecified), in data set [1], the Drug uptake was found to be 2.57.

As for `O=C(OCCC[18F])C1C2CCC(CC1c1cccc(/C=C\Br)c1)N2` (stereo unspecified), the Drug uptake was 3.05 in data set [2], 2.16 in data set [3] and 2.68 in data set [4].

As for `O=C(OCC[18F])C1C2CCC(CC1c1cccc(/C=C\I)c1)N2` (stereo unspecified), the Drug uptake in data set [5] was determined as 0.01; in data set [6], 0.1.
